This is an account of results in US20070122802A1, “Methods of diagnosing and treating diabetes and insulin resistance” (priority 2002, published 2007).

Common to all, as to assay type: in vivo, human
One experiment deals with Ceramidase. Nature of the experiment: Gene expression profiling (Affymetrix chips) of muscle from diabetics before/after troglitazone: ceramidase transcripts. Conditions: Ceramidase mRNA, Clamp sample. The source says:
(§1) The molecular mechanism by which thiazolidinediones (TZDs) cause an increase in peripheral insulin sensitivity was studied. Genes in muscle or fat whose expression is altered by TZDs may lie on a pathway leading from TZD treatment to increased insulin sensitivity. Modulators of such genes can elicit the same effect as TZD treatment. Moreover, such modulators can lack some of the side effects of TZD. The majority of glucose disposal occurs in muscle. For this reason, gene expression profiling in human muscle from diabetics treated with troglitazone was used to identify genes important for TZD action and therefore treatment of diabetes and insulin resistance. […]
(§2) In the second study, samples were obtained from lean, obese, and diabetic individuals before and after a hyperinsulinemic euglycemic clamp. […] The gene expression profile for each individual was determined by hybridization of cRNA to custom synthesized Affymetrix chips.
(§3) Gene expression profile differences were calculated as follows. […] The raw data was analyzed by a statistical test to remove ‘outliers’. The mean ‘average difference score’ was then calculated from the average difference scores for all individuals in a particular treatment group. Genes were determined to be changed in three different comparisons by calculating the Students t test statistic between two conditions and selecting those with t less than or equal to 0.05. […]

In a further experiment the test system is Endothelin A receptor. Nature of the experiment: Gene expression profiling (Affymetrix chips) of muscle from diabetics before/after troglitazone: Endothelin A receptor transcripts. Conditions: Endothelin A receptor mRNA, Clamp sample.
Text: as §1, §2, §3

The subject of the next experiment is HIOMT. Nature of the experiment: Gene expression profiling (Affymetrix chips) of muscle from diabetics before/after troglitazone: HIOMT transcripts. The settings on record: HIOMT mRNA, Basal sample.
Text: as §1, §2, §3

Another experiment has as its system PRK1. In words: Gene expression profiling (Affymetrix chips) of muscle from diabetics before/after troglitazone: PRK1 transcripts. The settings on record: PRK1 mRNA, Basal sample.
Text: as §1, §2, §3

Setting [1] is: 3 months of Troglitazone treatment.

Consider `Cc1c(C)c2c(c(C)c1O)CCC(C)(COc1ccc(CC3SC(=O)NC3=O)cc1)O2` (centres unmarked) [Troglitazone, troglitazone], for which the “Fold Change (diabetic post tro/diabetic pre tro)” value with Ceramidase (setting [1]) was 0.68; with Endothelin A receptor (setting [1]) it was 0.52; in the experiment with HIOMT (setting [1]) it was 1.51; in the experiment with PRK1 (setting [1]), 0.54. In the experiment on Ceramidase (diabetic patients after 3 months of Troglitazone treatment (pre-Trog mean 630)), the “Diabetic Post-Trog Mean Exp” value came to 427. Also, the “Diabetic Post-Trog Mean Expr” value in the experiment with Endothelin A receptor (diabetic patients after 3 months of Troglitazone treatment (pre-Trog mean 194)) is on record as 102; with HIOMT (diabetic patients after 3 months of Troglitazone treatment (pre-Trog mean 518)), 781; in the experiment on PRK1 (diabetic patients after 3 months of Troglitazone treatment (pre-Trog mean 1634)) it was 874.
